Source: US20050255537A1, “Method for monitoring treatment with a parathyroid hormone” (priority 1999, published 2005)

How the values were obtained:
Type in all cases: in vivo, human
[1] = system: BSAP and PICP serum levels, NTX urine levels; experiment: Example 1 clinical trial of rhPTH(1-34) in postmenopausal women: markers of bone formation and resorption
Protocol: (§1) • Number of Subjects: • rhPTH(1-34): 1093 enrolled, 848 finished. • Placebo: 544 enrolled, 447 finished. • Diagnosis and Inclusion Criteria: Women ages 30 to 85 years, postmenopausal for a minimum of 5 years, with a minimum of one moderate or two mild atraumatic vertebral fractures. • Dosage and Administration: • Test Product (blinded) • rhPTH(1-34): 20 μg/day, given subcutaneously • rhPTH(1-34): 40 μg/day, given subcutaneously • Reference Therapy (blinded) • Placebo study material for injection • Duration of Treatment: • rhPTH(1-34): 17-23 months (excluding 6-month run-in phase) • Placebo: 17-23 months (excluding 6-month run-in phase) • Criteria for Evaluation: Spine x-ray; serum biological markers (calcium, bone-specific alkaline phosphatase, procollagen I carboxy-terminal propeptide); urine markers (calcium, N-telopeptide, free deoxypyridinoline); 1,25-dihydroxyvitamin D; bone mineral density: spine, hip, wrist, and total body: height; population pharmacokinetics; bone biopsy (selected study sites).
Measures of BSAP, PICP, and NTX levels were determined for each patient through the course of therapy, for example, at 0, 1, 3, 6, 12, 21 and 24 months after the initiation of administration of parathyroid hormone. Parathyroid hormone treatment was discontinued after 17-23 months. The percent change (relative to the initial “0” month levels) for each marker was determined for each patient and is reported in the Figures. The overall changes observed in the 20 μg/day PTH-treated patient population, the 40 μg/day PTH-treated treated patient population, and the placebo patient population were determined by methods known to those of skill in the arts.

[2] = system: BSAP and PICP serum levels, NTX urine levels; experiment: Example 3 clinical trial of rhPTH(1-34) vs alendronate: bone markers; conditions: 40 μg/day PTH
Protocol: • Number of Subjects: • rhPTH(1-34): 73 enrolled, 51 finished. • Alendronate (Fosamax®): 73 enrolled, 57 finished. • Diagnosis and Inclusion Criteria: Women aged 65±8 years, postmenopausal for 19±19 years, selected for a baseline spine bone mineral density of 0.8±0.1 and a T value of −2.2. Dosage and Administration: • Test Product (blinded) • rhPTH(1-34): 40 μg/day, given subcutaneously • Reference (Control) Therapy (blinded) • Alendronate (Fosamax®): 10 mg per patient per day • Duration of Treatment: • rhPTH(1-34): 12-18 months, with follow up from time of withdrawal of drug to 18 months of study. • Alendronate: 12-18 months, with follow up from time of withdrawal of drug to 18 months of study. • Criteria for Evaluation: Spine x-ray, serum biological markers (calcium, bone-specific alkaline phosphatase, procollagen I carboxy-terminal propeptide); urine makers (calcium, N-telopeptide, fir deoxypyridinoline); 1,25-dihydroxyvitamin D; bone mineral density spine, hip, wrist, and total body.
Measures of BSAP, PICP, and NTX levels were determined for each patient through the course of therapy generally according to methods described above in Example 1.

postmenopausal women = experiment: Example 4 population pharmacodynamic models of total lumbar spine and femoral neck BMD
Excerpt: Data from the studies described in Examples 1-3 above were further analyzed to develop more detailed models for the use of bone markers in monitoring and predicting effects of PTH on clinically significant correlates of efficacy in the treatment of osteoporosis, such as bone mineral density (BMD). Population pharmacodynamic (PD) models were developed to describe total lumbar spine and femoral neck bone mineral density (BMD) responses in ˜1500 postmenopausal women enrolled in a phase 3 study of LY333334 [rhPTH(1-34)]. Serum LY333334 (LY), procollagen 1 carboxy-terminal propeptide (PICP) and bone specific alkaline phosphatase (B SAP) concentrations, and urinary excretion of N-telopeptide (NTX) and free deoxypyridinoline (DPD) were also measured in a subset of ˜350 patients. LY dose, average steady-state LY concentration, and early changes in markers of bone turnover were each evaluated for their ability to predict subsequent changes in BMD. […] Response was greatest in patients with increased fracture risk (i.e., older women with low BMD, low body weight, and high bone turnover at baseline). In the subset analysis, PICP was the strongest indicator of BMD response; an increase >101 pM after 1 month of therapy was always associated with a gain in spine BMD. NTX was also a better predictor of increase in BMD than LY dose, but dose predicted BMD response better than LY, BSAP or DPD concentrations (p<0.001).
Population pharmacodynamic models were developed individually for total lumber spine BMD, femoral neck BMD, procollagen 1 carboxy-terminal propeptide (PICP), bone specific alkaline phosphate (BSAP), urinary N-telopeptide (NTX), and urinary free deoxypyridinoline (DPD). These treatment-response models characterized change in the pharmacodynamic endpoints and identified significant patient factors influencing response to therapy.
The final treatment-response models for total lumbar spine and femoral neck BMD were used to calculate BMD values after 21 months of treatment for each patient, based on the individual's parameter estimates (empirical Bayesian estimates). Similarly, the final treatment-response models for each biochemical maker (PICP, BSAP, NTX, and DPD) were used to calculate concentration values after 1 month of treatment for each patient. These predicted BMD measurements were merged with the predicted biochemical marker concentrations for patients who completed at least 12 months of LY333334 therapy.
Biochemical marker response-indicator models were developed to characterize the relationship between the biochemical marker concentrations at 1 month and response to therapy, as measured by change in total lumbar spine and femoral neck BMD.
Population pharmacodynamic analyses were undertaken to evaluate the time course of the relationships between efficacy measures and LY333334 dose or LY333334 concentrations. […] As a part of this assessment, a population placebo-response model describing the change in BMD in patients randomly assigned to placebo (supplemented with calcium and vitamin D) was first developed. Patient-specific factors that explained some of the variability of that model were identified and included in the model. A pharmacodynamic model describing the therapeutic response was then developed for patients randomly assigned to LY333334 treatment using the placebo-response model as the baseline function. Thus, the progression of bone loss that occurs in osteoporosis patients receiving only calcium and vitamin D supplementation was separated from the effects of LY333334 treatment.

[3] = system: postmenopausal osteoporotic women; experiment: GHAC efficacy trial (intent to treat BMD, fractures); conditions: 20 μg/day, 21 months
Protocol: as §1
Population pharmacodynamic analyses were undertaken to evaluate the time course of the relationships between efficacy measures and LY333334 dose or LY333334 concentrations. […] As a part of this assessment, a population placebo-response model describing the change in BMD in patients randomly assigned to placebo (supplemented with calcium and vitamin D) was first developed. […]

[4] = about 5-6 weeks following termination, about 21-24 months after initiation
[5] = about 5-6 weeks following termination (18 months)
[6] = 21 months, 20 and 40 μg groups together

CC[C@H](C)[C@H](NC(=O)[C@H](CCC(=O)O)NC(=O)[C@H](CO)NC(=O)[C@@H](NC(=O)[C@@H](N)CO)C(C)C)C(=O)N[C@@H](CCC(N)=O)C(=O)N[C@@H](CC(C)C)C(=O)N[C@@H](CCSC)C(=O)N[C@@H](Cc1cnc[nH]1)C(=O)N[C@@H](CC(N)=O)C(=O)N[C@@H](CC(C)C)C(=O)NCC(=O)N[C@@H](CCCCN)C(=O)N[C@@H](Cc1cnc[nH]1)C(=O)N[C@@H](CC(C)C)C(=O)N[C@@H](CC(N)=O)C(=O)N[C@@H](CO)C(=O)N[C@@H](CCSC)C(=O)N[C@@H](CCC(=O)O)C(=O)N[C@@H](CCCN=C(N)N)C(=O)N[C@H](C(=O)N[C@@H](CCC(=O)O)C(=O)N[C@@H](Cc1c[nH]c2ccccc12)C(=O)N[C@@H](CC(C)C)C(=O)N[C@@H](CCCN=C(N)N)C(=O)N[C@@H](CCCCN)C(=O)N[C@@H](CCCCN)C(=O)N[C@@H](CC(C)C)C(=O)N[C@@H](CCC(N)=O)C(=O)N[C@@H](CC(=O)O)C(=O)N[C@H](C(=O)N[C@@H](Cc1cnc[nH]1)C(=O)N[C@@H](CC(N)=O)C(=O)N[C@@H](Cc1ccccc1)C(=O)O)C(C)C)C(C)C [LY333334]
percent change in PICP serum levels during treatment ([1]; 20 μg/day and 40 μg/day PTH, FIG. 2): reached a peak within about one or two months | percent change in NTX urine levels during treatment ([1]; 20 μg/day and 40 μg/day PTH, FIG. 3): increased steadily until about 12 months after treatment initiation | BSAP level after termination of PTH treatment [1, 4]: returned to a level at or slightly higher than placebo control levels | PICP level after termination of PTH treatment [1, 4]: returned to a level about the same as placebo controls | percent change in NTX levels after termination of PTH treatment ([1]; about 21-24 months after initiation): declined and returned to levels similar to those observed in the placebo treated group | BSAP level after termination of PTH treatment ([2]; (18 months)): BSAP remained at an elevated level | percent change in PICP serum levels during treatment ([2]; FIG. 8): reached a peak within about one or two months | percent change in NTX urine levels during treatment ([2]; FIG. 9): increased steadily until about 12 months after treatment initiation | NTX levels after termination of PTH treatment [2, 5]: had declined but remained elevated compared to pretreatment levels | PICP levels after termination of PTH treatment [2, 5]: PICP levels were the same pre-treatment levels | final PD model predicted increase in hip (femoral neck) BMD (postmenopausal women; 40 μg/day, 21 months): ~5.2% | final PD model predicted increase in total lumbar spine BMD (postmenopausal women; 40 μg/day, 21 months): ~14.6% | treatment group model change from mean baseline femoral neck BMD (postmenopausal women; 20-μg group, 21 months): 2.8% | treatment group model change from mean baseline spine BMD (postmenopausal women; 20-μg group, 21 months): 10.5% | treatment group model predicted change in femoral neck BMD (postmenopausal women; 20-μg group, 21 months): 0.018 g/cm^2 | treatment group model predicted change in spine BMD (postmenopausal women; 20-μg group, 21 months): 0.086 g/cm^2 | base model change from mean baseline femoral neck BMD (postmenopausal women; [6]): 4.2% | base model change from mean baseline spine BMD (postmenopausal women; [6]): 12.6% | base model predicted increase in femoral neck BMD, typical treated patient (postmenopausal women; 21 months, 20 and 40 μg groups together, 272 patients): 0.027 g/cm^2 | base model predicted increase in spine BMD, typical treated patient (postmenopausal women; 21 months, 20 and 40 μg groups together, 276 patients): 0.103 g/cm^2 | treatment group model change from mean baseline femoral neck BMD (postmenopausal women; 40-μg group, 21 months): 5.3% | treatment group model change from mean baseline spine BMD (postmenopausal women; 40-μg group, 21 months): 14.8% | treatment group model predicted change in femoral neck BMD (postmenopausal women; 40-μg group, 21 months): 0.034 g/cm^2 | treatment group model predicted change in spine BMD (postmenopausal women; 40-μg group, 21 months): 0.121 g/cm^2 | subjects with a negative BMD response (spine BMD<0.00 g/cm^2) (postmenopausal women; from a total of 272, 21 months, FIG. 11): four | actual increase in femoral neck BMD from intent to treat analyses [3]: 2.8% | actual increase in spine BMD from intent to treat analyses [3]: 9.7%
